Data published in patent publication US5051132A, “Lyophilized preparation of 6-(3-dimethylaminopropionyl)forskolin” (priority 1989, dated 1991).

Assay: Stability and solubility of 6-(3-dimethylaminopropionyl)forskolin in aqueous solution
Assay type: physicochemical

Question: What does the source list for C=CC1(C)CC(=O)C2(O)C(C)(O1)C(OC(C)=O)C(OC(=O)CCN(C)C)C1C(C)(C)CCC(O)C12C (centres unmarked) [6-(3-dimethylaminopropionyl)forskolin]?
Answer: stability in the state of aqueous solution (aqueous solution): unstable in the state of aqueous solution; stability and solubility in the pH range of about 3 to about 6 (pH about 3 to about 6): keeps stable and exhibits a good solubility
